A short description of data set [1]: Dissociation constant, pKa of the compound by UV-visible absorption spectroscopy. It is filed as physicochemical.
The nature of data set [2]: Antioxidant activity assessed as second order rate constant for galvinoxyl radical scavenging activity in acetonitrile solution by UV-visible absorption spectroscopy. In kind it is functional.
A short description of data set [3]: Hydroxyl radical scavenging activity assessed as reduction of DMPO-OH adduct formation using Fenton reaction by ESR spectroscopy. It is filed as functional.

A word on the pKa: it is the pH at which an ionisable group is half protonated. `CC1(C)CCc2cc(O)cc(Cl)c2O1`: the pKa in data set [1] is 9.8. Further, the results for the Activity in data set [2] and in data set [3] were 21 M⁻¹ s⁻¹ and “Dose-dependent effect”, respectively.
For the compound `CC1(C)CCc2cc(O)c(Cl)cc2O1`, the pKa in data set [1] stood at 9.1. For the same compound, the figures for the Activity in data set [2] and in data set [3] were 42 M⁻¹ s⁻¹ and “Dose-dependent effect”, respectively.
On the same counts, the results for `CC1(C)CCc2c(ccc(O)c2Cl)O1` are 8.6, 37 M⁻¹ s⁻¹ and “Dose-dependent effect”.
As to `CC1(C)CCc2cc(O)ccc2O1`, the pKa in data set [1] amounted to 10.3. For the same compound, the Activity was 98 M⁻¹ s⁻¹ in data set [2] and “Dose-dependent effect” in data set [3].
Consider `CC1(C)CCc2c(Cl)c(O)c(Cl)c(Cl)c2O1`, for which the pKa in data set [1] is 7.1. For the same compound, the values for the Activity in data set [2] and in data set [3] were 54 M⁻¹ s⁻¹ and “Dose-dependent effect”, respectively.
For `CC1(C)CCc2c(cc(Cl)c(O)c2Cl)O1` the same measures were 7.7, 67 M⁻¹ s⁻¹ and “Dose-dependent effect”.

The record behind these values is ChEMBL document CHEMBL2046314, “Chlorine atom substitution influences radical scavenging activity of 6-chromanol” (Bioorg Med Chem, 2012).
